From ChEMBL document CHEMBL6109120, “Discovery of Novel SIK2/3 Inhibitors for the Potential Treatment of MEF2C+ Acute Myeloid Leukemia (AML)” (J Med Chem, 2025)
pIC50: −log10 of the molar value.

Experiments:
[1] = biological target: Tyrosine-protein kinase Lck (Homo sapiens, UniProt P06239); assay: Binding affinity to human LCK by KINOMEscan assay
[2] = Binding affinity to human ABL by KINOMEscan assay
[3] = biological target: Serine/threonine-protein kinase SIK1 (Homo sapiens, UniProt P57059); assay: Inhibition of human SIK1 (02 to 131) assessed as luminescence signal using AMARAtide/ATP as substrate measured after 120 mins by microplate reader
[4] = biological target: Serine/threonine-protein kinase SIK2 (Homo sapiens, UniProt Q9H0K1); assay: Inhibition of recombinant full length human SIK2 assessed as luminescence signal using AMARAtide/ATP as substrate measured after 120 mins by microplate reader
[5] = biological target: Serine/threonine-protein kinase SIK3 (Homo sapiens, UniProt Q9Y2K2); assay: Inhibition of recombinant human SIK3 assessed as luminescence signal using AMARAtide/ATP as substrate measured after 120 mins by microplate reader
Serine/threonine-protein kinase SIK3, sequence (Q9Y2K2 whole entry): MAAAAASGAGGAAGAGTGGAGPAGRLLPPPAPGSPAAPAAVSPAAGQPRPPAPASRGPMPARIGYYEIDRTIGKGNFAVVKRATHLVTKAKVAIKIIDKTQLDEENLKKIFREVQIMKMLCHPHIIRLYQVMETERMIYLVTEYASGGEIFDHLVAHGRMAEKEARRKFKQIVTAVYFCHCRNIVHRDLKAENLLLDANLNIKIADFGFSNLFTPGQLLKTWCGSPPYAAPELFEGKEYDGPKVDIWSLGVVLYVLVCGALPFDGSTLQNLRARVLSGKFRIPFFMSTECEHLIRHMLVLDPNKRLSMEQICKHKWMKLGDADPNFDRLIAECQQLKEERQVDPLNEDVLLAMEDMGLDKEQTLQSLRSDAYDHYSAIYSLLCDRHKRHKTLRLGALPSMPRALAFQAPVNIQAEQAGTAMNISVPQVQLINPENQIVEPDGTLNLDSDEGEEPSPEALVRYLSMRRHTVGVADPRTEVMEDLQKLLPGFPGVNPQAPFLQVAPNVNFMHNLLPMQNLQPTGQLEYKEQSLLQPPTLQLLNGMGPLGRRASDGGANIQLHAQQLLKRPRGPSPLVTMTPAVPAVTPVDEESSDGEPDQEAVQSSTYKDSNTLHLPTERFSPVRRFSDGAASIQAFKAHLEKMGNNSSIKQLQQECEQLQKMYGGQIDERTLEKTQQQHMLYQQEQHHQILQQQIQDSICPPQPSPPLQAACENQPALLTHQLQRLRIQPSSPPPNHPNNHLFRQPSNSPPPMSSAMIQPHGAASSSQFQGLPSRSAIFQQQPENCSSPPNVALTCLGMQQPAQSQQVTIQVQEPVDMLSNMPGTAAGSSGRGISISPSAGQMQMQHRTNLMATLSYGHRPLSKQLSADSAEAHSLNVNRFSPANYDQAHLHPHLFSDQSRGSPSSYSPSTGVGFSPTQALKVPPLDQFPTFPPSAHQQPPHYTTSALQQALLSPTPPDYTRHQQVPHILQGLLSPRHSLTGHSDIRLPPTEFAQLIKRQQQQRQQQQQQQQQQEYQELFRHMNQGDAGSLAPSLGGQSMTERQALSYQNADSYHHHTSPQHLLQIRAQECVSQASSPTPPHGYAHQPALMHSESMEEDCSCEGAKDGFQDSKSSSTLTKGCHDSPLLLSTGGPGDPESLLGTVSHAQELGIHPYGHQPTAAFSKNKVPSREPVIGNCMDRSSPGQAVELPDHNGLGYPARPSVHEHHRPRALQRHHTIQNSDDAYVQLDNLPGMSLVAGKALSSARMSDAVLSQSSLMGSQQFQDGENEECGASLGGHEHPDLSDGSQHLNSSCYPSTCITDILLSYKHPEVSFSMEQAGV

Serine/threonine-protein kinase SIK2, sequence (Q9H0K1 whole entry): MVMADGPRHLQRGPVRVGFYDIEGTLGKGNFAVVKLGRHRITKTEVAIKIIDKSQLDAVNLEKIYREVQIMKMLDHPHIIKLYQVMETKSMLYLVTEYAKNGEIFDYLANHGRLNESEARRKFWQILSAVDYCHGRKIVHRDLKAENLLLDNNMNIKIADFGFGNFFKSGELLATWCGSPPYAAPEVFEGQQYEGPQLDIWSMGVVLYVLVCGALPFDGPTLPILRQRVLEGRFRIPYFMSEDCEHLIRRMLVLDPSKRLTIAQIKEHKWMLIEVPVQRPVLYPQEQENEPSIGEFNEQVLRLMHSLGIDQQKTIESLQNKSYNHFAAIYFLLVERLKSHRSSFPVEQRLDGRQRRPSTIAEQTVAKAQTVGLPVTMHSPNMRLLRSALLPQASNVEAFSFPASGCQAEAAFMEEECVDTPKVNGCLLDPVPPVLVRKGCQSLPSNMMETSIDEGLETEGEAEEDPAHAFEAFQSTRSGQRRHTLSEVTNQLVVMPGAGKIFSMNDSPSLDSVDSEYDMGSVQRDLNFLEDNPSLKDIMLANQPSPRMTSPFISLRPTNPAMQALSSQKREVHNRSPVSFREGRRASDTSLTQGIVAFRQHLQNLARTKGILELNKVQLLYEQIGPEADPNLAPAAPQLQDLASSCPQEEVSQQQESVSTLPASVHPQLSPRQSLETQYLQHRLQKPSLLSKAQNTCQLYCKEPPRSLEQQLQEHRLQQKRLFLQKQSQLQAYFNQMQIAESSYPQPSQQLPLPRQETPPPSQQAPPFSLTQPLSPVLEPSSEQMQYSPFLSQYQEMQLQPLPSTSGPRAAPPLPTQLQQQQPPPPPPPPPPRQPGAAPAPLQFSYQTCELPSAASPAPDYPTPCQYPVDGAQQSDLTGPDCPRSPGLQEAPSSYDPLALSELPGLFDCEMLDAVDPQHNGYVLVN
Tyrosine-protein kinase Lck, sequence (P06239 whole entry): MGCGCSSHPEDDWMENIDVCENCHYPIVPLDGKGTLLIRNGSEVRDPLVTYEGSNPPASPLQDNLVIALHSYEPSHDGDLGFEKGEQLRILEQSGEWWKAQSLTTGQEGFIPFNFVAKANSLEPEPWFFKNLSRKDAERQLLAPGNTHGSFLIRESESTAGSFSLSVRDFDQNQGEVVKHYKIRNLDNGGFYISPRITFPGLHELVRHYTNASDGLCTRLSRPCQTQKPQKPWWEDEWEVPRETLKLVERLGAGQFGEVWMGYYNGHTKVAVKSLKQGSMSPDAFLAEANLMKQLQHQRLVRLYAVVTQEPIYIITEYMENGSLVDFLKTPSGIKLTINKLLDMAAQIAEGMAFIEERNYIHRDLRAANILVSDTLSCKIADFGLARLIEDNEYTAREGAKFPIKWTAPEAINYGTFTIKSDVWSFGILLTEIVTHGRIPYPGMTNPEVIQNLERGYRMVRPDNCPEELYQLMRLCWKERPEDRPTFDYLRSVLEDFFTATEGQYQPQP
Serine/threonine-protein kinase SIK1, sequence (P57059 whole entry): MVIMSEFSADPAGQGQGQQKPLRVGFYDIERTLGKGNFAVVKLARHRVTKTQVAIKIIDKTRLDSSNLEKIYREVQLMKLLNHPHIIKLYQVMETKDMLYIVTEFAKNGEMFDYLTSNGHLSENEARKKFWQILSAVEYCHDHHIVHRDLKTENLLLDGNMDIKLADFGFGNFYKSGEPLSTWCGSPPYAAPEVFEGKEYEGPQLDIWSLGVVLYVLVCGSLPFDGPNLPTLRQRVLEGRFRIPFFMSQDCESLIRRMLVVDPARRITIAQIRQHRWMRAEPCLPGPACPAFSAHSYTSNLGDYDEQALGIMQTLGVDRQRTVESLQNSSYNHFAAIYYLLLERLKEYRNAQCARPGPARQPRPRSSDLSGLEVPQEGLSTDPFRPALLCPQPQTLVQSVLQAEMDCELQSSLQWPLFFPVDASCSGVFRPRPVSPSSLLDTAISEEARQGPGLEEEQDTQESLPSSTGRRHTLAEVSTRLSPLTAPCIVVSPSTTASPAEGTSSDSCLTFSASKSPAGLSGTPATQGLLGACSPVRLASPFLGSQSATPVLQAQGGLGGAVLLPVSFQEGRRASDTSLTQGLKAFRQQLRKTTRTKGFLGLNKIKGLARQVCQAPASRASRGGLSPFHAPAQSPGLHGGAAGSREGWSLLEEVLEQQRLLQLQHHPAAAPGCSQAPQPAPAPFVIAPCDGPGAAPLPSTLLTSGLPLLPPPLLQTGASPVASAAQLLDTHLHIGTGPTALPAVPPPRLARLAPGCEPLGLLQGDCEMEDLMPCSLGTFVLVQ

Cc1cc(-c2cc(O)ccc2Cl)cc2nnc(Nc3ccc(OCCN4CCCC4)cc3)nc12
pIC50 [1]: 8.57

CNC(=O)c1cc(Oc2ccc(NC(=O)Nc3cc(C(C)(C)C)nn3-c3ccc4ncccc4c3)c(F)c2)ccn1 [REBASTINIB]
pIC50 [2]: 7.57

COc1cc(-c2cc(-c3cnn(C4CCOCC4)c3)cnc2N)cc2c1C(=O)N(CC#N)CC2
pIC50 [3]: 6.93
pIC50 [4]: 8.31
pIC50 [5]: 8.24

COc1cc(-c2cc(-c3cnn(S(C)(=O)=O)c3)cnc2N)cc2c1C(=O)N(CC(F)(F)F)CC2
pIC50 [4]: 7.41
